A value given as a limit tells only on which side of the number the result lay.

Experimental findings from ChEMBL document CHEMBL1135431, “1-[2-[(5-Cyanopyridin-2-yl)amino]ethylamino]acetyl-2-(S)-pyrrolidinecarbonitrile: a potent, selective, and orally bioavailable dipeptidyl peptidase IV inhibitor with antihyperglycemic properties” (J Med Chem, 2002) are described below.

For one series, the target named is Dipeptidyl peptidase 4 (Rattus norvegicus, UniProt P14740). Nature of the series: In vitro inhibitory activity against Dipeptidyl peptidase IV (DPP-IV) extracted from rat plasma. The format is cell-free.
Series [1] can be described thus: Cmax after an oral dose of 10 umol/Kg in male Sprague-Dawley rats. The format is ADME, organism-based. Also noted: dose 10 umol/Kg, route oral. The following applies: rat, in vivo.
A short description of series [2]: Cmax after an oral dose of 10 umol/Kg in male cynomolgus monkeys. The format is ADME, organism-based, Macaca fascicularis. Also noted: dose 10 umol/Kg, route oral. The following applies: cynomolgus monkey, in vivo.
Series [3] in a line: Clearance from plasma in male Sprague-Dawley rats. The format is ADME, organism-based. The following applies: rat.
A short description of series [4]: Clearance from plasma in male cynomolgus monkeys. The format is ADME, organism-based, Macaca fascicularis. The following applies: cynomolgus monkey.
Series [5] in a line: Absolute bioavailability in male cynomolgus monkeys. The following applies: cynomolgus monkey, in vivo. The format is ADME, organism-based, Macaca fascicularis.
Series [6] is described as follows: Absolute bioavailability in maleSprague-Dawley rats. The following applies: male, Sprague-Dawley, rat, in vivo. The format is ADME, organism-based.
Series [7] is described as follows: Steady state volume of distribution in male Sprague-Dawley rats. The format is ADME, organism-based. The following applies: rat, in vivo.
The nature of series [8]: Steady state volume of distribution male cynomolgus monkeys. The format is ADME, organism-based, Macaca fascicularis. The following applies: cynomolgus monkey, in vivo.
Series [9] can be described thus: Half-life (t1/2) after an oral dose of 1 uM/Kg in monkey. The format is ADME, organism-based. The following applies: simiiformes, in vivo.
A short description of series [10]: Half-life (t1/2) after an oral dose of 100 mg in human. The format is ADME, organism-based. The following applies: in vivo.
Series [11] concerns Monkey. Nature of the series: In vivo ability to reduce the peak plasma glucose levels in monkey compared to control ( 88 +/- 3 mg/dL) during an oral glucose tolerance test (OGTT). The format is functional, Cercopithecidae.
The subject of series [12] is Monkey. The series can be described thus: In vivo ability to reduce the plasma glucose levels ( in 0-90 minutes glucose AUC) in monkey compared to control during an oral glucose tolerance test (PGTT). The format is functional, Cercopithecidae.

Dipeptidyl peptidase 4, sequence (P14740 whole entry): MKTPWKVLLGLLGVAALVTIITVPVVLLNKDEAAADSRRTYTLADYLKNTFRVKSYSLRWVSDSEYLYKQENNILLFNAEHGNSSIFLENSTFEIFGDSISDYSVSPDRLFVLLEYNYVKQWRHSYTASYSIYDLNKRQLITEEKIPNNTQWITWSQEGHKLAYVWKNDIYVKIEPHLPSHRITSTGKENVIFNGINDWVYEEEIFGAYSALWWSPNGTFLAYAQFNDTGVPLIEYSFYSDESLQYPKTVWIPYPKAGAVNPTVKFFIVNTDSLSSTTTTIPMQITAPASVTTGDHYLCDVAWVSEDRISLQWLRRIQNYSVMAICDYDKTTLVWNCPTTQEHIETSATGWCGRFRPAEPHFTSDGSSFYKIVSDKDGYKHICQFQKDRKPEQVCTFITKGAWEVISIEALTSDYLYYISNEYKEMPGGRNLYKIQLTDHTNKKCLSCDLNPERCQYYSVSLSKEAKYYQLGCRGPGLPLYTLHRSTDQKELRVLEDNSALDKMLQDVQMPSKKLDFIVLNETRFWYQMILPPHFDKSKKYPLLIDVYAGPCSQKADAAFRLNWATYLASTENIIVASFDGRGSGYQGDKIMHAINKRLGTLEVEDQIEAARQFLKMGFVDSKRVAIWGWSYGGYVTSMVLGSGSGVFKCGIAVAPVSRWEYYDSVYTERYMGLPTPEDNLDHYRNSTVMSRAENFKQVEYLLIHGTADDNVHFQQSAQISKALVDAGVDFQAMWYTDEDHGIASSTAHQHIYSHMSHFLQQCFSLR

One may read the IC50 as the point on the concentration scale where inhibition reaches its midpoint. As to `N#C[C@@H]1CCCN1C(=O)[C@@H](N)C1CCCCC1`, on Dipeptidyl peptidase 4, it took 2.8 nM to reach half-maximal inhibition (IC50).

By Cmax is commonly meant the maximum level reached in the sampled fluid or tissue. In general, clearance refers to the rate of elimination divided by the concentration. A word on the bioavailability: it is the share of a dose that reaches the circulation, judged against a reference dose that is usually intravenous. A word on the Vd: it is a proportionality between amount in the body and measured concentration, not a real space. Broadly, the half-life is how long it takes for the measured level to halve. Turning to `N#Cc1ccc(NCCNCC(=O)N2CCC[C@H]2C#N)nc1`, the Cmax in series [1] is 3.65 µM; in [2], 7.56 µM. In addition, the results for the clearance in [3] and in [4] were 28 mL/min/kg and 21.9 mL/min/kg, respectively. The bioavailability in [5] and in series [6] was at least 74% in each case. The Vd in series [7] stood at 0.67 L/kg; in series [8], 0.841 L/kg. In addition, the half-life in [9] and in series [10] was 51 min in each case. Moreover, the Reduction in the series on Monkey [11] is 98; with Monkey [12], 38%.
